According to US8809627B2, “Plant isoflavone and isoflavanone O-methyltransferase genes” (The Samuel Roberts Noble Foundation, Inc., priority 2006, dated 2014):

System: MtIOMT3
Assay: OMT assays with purified recombinant MtIOMT3 (relative activity; HPLC/MS of products)
Type: biochemical, Medicago truncatula
Details: 50 μM S-adenosyl methionine, 100 μM acceptor substrate; most converted substrate = 100%
Description: Cloning of MtIOMT5 (corresponding to TC 100926, TIGR MtGI v.8) was as described previously (Liu et al., 2005). To obtain a full-length cDNA for MtIOMT2, specific primers designed based upon the M. truncatula genomic sequence were used to amplify the MtIOMT2 coding sequence from M. truncatula root cDNA. The amplified product was cloned into the pGEM®-T easy vector (Promega, Madison Wis.) and sequenced to confirm its identity. MtIOMTs were cloned into the pET28a vector (EMD Biosciences, Inc., San Diego, Calif.) using PCR-based amplification with primers designed to introduce EcoRI and XhoI restriction sites; BamHI and XhoI sites were used for cloning MtIOMT6 due to the presence of an internal EcoRI site in this particular cDNA. Because the EST for MtIOMT8 was missing a start codon, the primer designed to clone MtIOMT8 into pET28a contained an additional 2-nucleotide insertion to generate an ATG start site. All MtIOMTs were expressed as translational fusions to an N-terminal His-tag. Expression of MtIOMTs in E. coli BL21(DE3) and purification by Ni^2+-NTA chromatography were as described (Zubieta et al., 2001). Proteins were dialyzed against 20 mM Tris pH 8.0, 100 mM NaCl, 10% (v/v) glycerol, and 14 mM β-mercaptoethanol. Protein concentration was determined by Bradford assay using BSA as a standard (Bradford, 1976).
Reactions (200 μl) were performed in 0.1 M potassium phosphate, pH 7.4, 10% (w/v) sucrose, 14 mM β-mercaptoethanol with 10 μM protein, 0.5 mM S-adenosyl-L-methionine, and 80 μM phenolic substrates. All substrates were purchased from Indofine (Hillsborough, N.J.) except 6,7-dihydroxy-4′-methoxyisoflavone, dihydrodaidzein, and vestitol, which were purchased from Apin (Oxfordshire, UK). […] OMT assays were incubated at 30° C. for 2 h and extracted with ethyl acetate. Ethyl acetate extracts were dried under N2 and the resultant material was resuspended in 50-100 μl of methanol. Samples were analyzed on an Agilent 1100 HPLC, equipped with a quaternary pump (model #G1311A), a degasser (model #G1322A), an autosampler (model #G1313A), and a diode array detector (model #G1315A). Samples of 20 μl were applied to an ODS2 reverse-phase column (5 μm particle size, 4.6×250 mm) and eluted in 1% (v/v) phosphoric acid with an increasing gradient of acetonitrile (0-5 min, 25%; 5-35 min, 25-50%; 35-39 min, 50-100%) at a flow rate of 1 ml/min. To resolve the 4′-O-methylated and 7-O-methylated products of genistein, samples were applied to a Phenomenex SYNERGI Polar-RP 80 Å column (4 μm particle size, 4.6×250 mm) and eluted in water with an increasing gradient of acetonitrile (0-5 min, 20%; 5-17 min, 20-38%; 17-33 min, 38%; 33-45 min, 38-56%; 45-46 min, 56-100%) at a flow rate of 1 ml/min. Chiral chromatography was performed as described (Liu et al., 2005).
For determination of specific activities, reactions (100 μl) were performed in 0.1 M potassium phosphate, pH 7.4, 10% (w/v) sucrose, 14 mM β-mercaptoethanol with 0.2-μg protein, 50 μM S-adenosyl-L-methionine (0.025 μCi ^14C-SAM per reaction), and 100 μM substrate. Reactions were incubated at 30° C. for 15-25 min and stopped by addition of 4 μl of 1N HCl. Products were extracted into 500 μl of ethyl acetate and 400 μl was used for liquid scintillation counting.
An HP 1100 series II LC system (Hewlett-Packard, Palo Alto, Calif.) with a photodiode array detector was coupled to a Bruker Esquire ion-trap mass spectrometer (ITMS) equipped with an electrospray ionization source. A reverse phase, C18, 5 μm, 4.6×250 mm column (J. T. Baker, Phillipsburg, N.J.) was used for separations. The mobile phase consisted of 0.1% (v/v) acetic acid using linear gradients of 5-90% acetonitrile (v/v) in 70 min. The flow rate was 0.8 ml/min, and the temperature of the column was kept at 28° C. Both positive- and negative-ion mass spectra were acquired. […]

Q: Which “Relative activity, MtIOMT3” value does the source give for `O=c1c(-c2ccc(O)cc2)coc2cc(O)c(O)cc12` [6,7,4′-trihydroxyisoflavone] here?
A: 100%

Q: Which “Relative activity, MtIOMT3” value does the source give for `O=C1C[C@@H](c2ccc(O)cc2)Oc2cc(O)cc(O)c21` [Naringenin] here?
A: 0%

Q: With `O=c1oc2cc(O)ccc2c2oc3cc(O)ccc3c12` [Coumestrol] as the compound, how does the “Relative activity, MtIOMT3” value read?
A: 0%

Q: For `COc1ccc(-c2coc3cc(O)c(O)cc3c2=O)cc1` [6,7-dihydroxy,4′-methoxyisoflavone], which “Relative activity, MtIOMT3” value is on record?
A: 0%

Q: Which “Relative activity, MtIOMT3” value does the source give for `O=c1c(O)c(-c2cc(O)c(O)c(O)c2)oc2cc(O)cc(O)c12` [Myricetin] here?
A: 0%

Q: Which “Relative activity, MtIOMT3” value does the source give for `COc1cc2c(=O)c(-c3ccc(O)cc3)coc2cc1O` [Glycitein] here?
A: 51.6%

Q: With `O=c1cc(-c2ccc(O)cc2)oc2cc(O)ccc12` [7,4′-dihydroxyflavone] as the compound, how does the “Relative activity, MtIOMT3” value read?
A: 0%

Q: Which “Relative activity, MtIOMT3” value does the source give for `COc1ccc(C2COc3cc(O)ccc3C2)c(O)c1` (centres unmarked) [Vestitol] here?
A: 0%

Q: With `O=C1c2ccc(O)cc2OCC1c1ccc(O)cc1` (centres unmarked) [Dihydrodaidzein] as the compound, how does the “Relative activity, MtIOMT3” value read?
A: 49.4%

Q: With `O=c1c(-c2ccc(O)c(O)c2)coc2cc(O)ccc12` [7,3′,4′-trihydroxyisoflavone] as the compound, how does the “Relative activity, MtIOMT3” value read?
A: 52.9%

Q: Which “Relative activity, MtIOMT3” value does the source give for `O=c1cc(-c2ccc(O)cc2)oc2cc(O)cc(O)c12` [Apigenin] here?
A: 0%

Q: Which “Relative activity, MtIOMT3” value does the source give for `O=c1c(-c2ccc(O)cc2)coc2cc(O)cc(O)c12` [Genistein] here?
A: 73.7%

Q: For `O=c1c(-c2ccc(O)cc2)coc2cc(O)ccc12` [Daidzein], which “Relative activity, MtIOMT3” value is on record?
A: ≦1%

Molecular target: T1, MsI7OMT (Medicago sativa, UniProt O24529)
T1 sequence (O24529 1-352): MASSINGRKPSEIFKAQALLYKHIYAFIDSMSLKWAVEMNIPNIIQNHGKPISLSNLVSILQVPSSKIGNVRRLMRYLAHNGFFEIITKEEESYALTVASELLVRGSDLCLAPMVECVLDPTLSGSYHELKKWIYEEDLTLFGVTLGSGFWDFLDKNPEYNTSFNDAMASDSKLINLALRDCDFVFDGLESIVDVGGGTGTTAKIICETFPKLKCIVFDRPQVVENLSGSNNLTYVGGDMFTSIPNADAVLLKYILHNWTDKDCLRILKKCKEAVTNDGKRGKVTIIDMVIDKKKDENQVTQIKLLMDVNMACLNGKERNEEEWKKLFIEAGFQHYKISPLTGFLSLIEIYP
Assay: not given
Details: reported by He et al., 1998; cited from earlier work

Q: For `O=c1c(-c2ccc(O)cc2)coc2cc(O)c(O)cc12` [6,7,4′-trihydroxyisoflavone], which “Activity of MsI7OMT relative to the activity with daidzein” value is on record?
A: 136 % of the activity with daidzein
